Assay results reported in publication PMC7506137, “Selective Phosphodiesterase 1 Inhibitor BTTQ Reduces Blood Pressure in Spontaneously Hypertensive and Dahl Salt Sensitive Rats: Role of Peripheral Vasodilation” (Frontiers in Physiology, 2020).
Where two headings read alike, the source gives them in different places.

Test: Plasma exposure (dried blood spot) after single oral dose
Assay type: in vivo
Details: male, Sprague Dawley, rat, whole blood (dried blood spot), po
Procedure: Male Sprague Dawley rats at 6 to 7 weeks were dosed orally by p.o. gavage with different doses of BTTQ formulated in 1% hydroxyethlycellulose (Dow Corning, Midland, MI, United States) (w/v), 0.25% polysorbate 80 (Sigma-Aldrich, St. Louis, MO, United States) (v/v), and 0.05% antifoam (v/v; Dow Corning, Midland, MI, United States) in purified water. Following dosing, ear temperature was measured by using a k-type thermocouple probe digital thermometer (Cole Parmer) every hour for 6 h and then at 24 h. Blood samples for plasma exposure measurement were obtained at the same time. Blood was collected via a tail snip directly into a 20-μL EDTA-coated capillary and immediately spotted onto a Whatman DMPK-C DBS card (GE Healthcare Bio-Sciences). Tail snips were performed by removing approximately 1 mm of the tail by using a scalpel. Blood flow was initiated by gentle squeezing of the tail. No analgesia or anesthesia was used during blood collections. A single sample and spot were collected per time point. The DBS cards were allowed to dry for approximately 2 h at room temperature, after which the cards were placed in a zip-top bag, stored, and shipped at ambient temperature.

[1] = 1 mg/kg, oral 1 mg/kg, FU 0.053, read-out: Unbound Concentration, individual animals
[2] = 1 mg/kg, oral 1 mg/kg, dried blood spot, read-out: Concentration, Mean
[3] = 1 mg/kg, oral 1 mg/kg, dried blood spot, read-out: Concentration, individual animals
[4] = 1 mg/kg, oral 1 mg/kg, FU 0.053, read-out: Unbound Concentration, Mean
[5] = 3 mg/kg, oral 3 mg/kg, FU 0.053, read-out: Unbound Concentration, Mean
[6] = 3 mg/kg, oral 3 mg/kg, FU 0.053, read-out: Unbound Concentration, individual animals
[7] = 3 mg/kg, oral 3 mg/kg, dried blood spot, read-out: Concentration, Mean
[8] = 3 mg/kg, oral 3 mg/kg, dried blood spot, read-out: Concentration, individual animals

O=c1c2nnc(C3(C4CC4)CC3)n2c2c(n1CC1CC1)CCCC2 [BTTQ, 1-[1,1′-bi(cyclopropyl)-1-yl]-5-(cyclopropylmethyl)-6,7,8,9-tetrahydro[1,2,4]triazolo[4,3-A]quinoxaline-4(5H)-one]
concentration at 2 h [1]: 88.5 nM
concentration at 2 h [2]: 1650 nM
concentration at 2 h [3]: 1670 nM
concentration at 3 h [4]: 62.1 nM
concentration at 3 h [1]: 64.1 nM
concentration at 3 h [2]: 1170 nM
concentration at 3 h [3]: 1210 nM
concentration at 4 h [4]: 57.3 nM
concentration at 4 h [1]: 47.7 nM
concentration at 4 h [2]: 1080 nM
concentration at 4 h [3]: 900 nM
concentration at 5 h [4]: 49.6 nM
concentration at 5 h [1]: 41.1 nM
concentration at 5 h [2]: 935 nM
concentration at 5 h [3]: 775 nM
concentration at 6 h [4]: 41.3 nM
concentration at 6 h [1]: 41.3 nM
concentration at 6 h [2]: 780 nM
concentration at 6 h [3]: 779 nM
concentration at 24 h [4]: 2.13 nM
concentration at 24 h [2]: 40.2 nM
concentration at 1 h [5]: 197 nM
concentration at 1 h [6]: 142 nM
concentration at 1 h [7]: 3710 nM
concentration at 1 h [8]: 2670 nM
concentration at 2 h [5]: 195 nM
concentration at 2 h [6]: 166 nM
concentration at 2 h [7]: 3690 nM
concentration at 2 h [8]: 3140 nM
concentration at 3 h [5]: 168 nM
concentration at 3 h [6]: 169 nM
concentration at 3 h [7]: 3170 nM
concentration at 3 h [8]: 3180 nM
concentration at 4 h [5]: 148 nM
concentration at 4 h [6]: 155 nM
concentration at 4 h [7]: 2790 nM
concentration at 4 h [8]: 2920 nM
concentration at 5 h [5]: 115 nM
concentration at 5 h [6]: 142 nM
